Test results from PubChem BioAssay (NCI).
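Where inhibition never reached the appropriate level, the endpoint shown equals the highest concentration tested. Otherwise, values were interpolated linearly from a five-concentration, 48-hour dose response in 96-well plates. GI50 = concentration required for 50% inhibition of growth. TGI denotes the concentration required for complete inhibition of growth.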

Columns and labels:
Assay in all cases: NCI-60 cell line screen, 48 h
MDA-MB-468 breast = test system: MDA-MB-468 breast
MALME-3M melanoma = test system: MALME-3M melanoma
A498 renal = test system: A498 renal
KM12 colon = test system: KM12 colon
IGROV1 ovarian = test system: IGROV1 ovarian
TK-10 renal = test system: TK-10 renal
OVCAR-3 ovarian = test system: OVCAR-3 ovarian
SF-295 CNS = test system: SF-295 CNS
OVCAR-5 ovarian = test system: OVCAR-5 ovarian
CCRF-CEM leukemia = test system: CCRF-CEM leukemia
SK-MEL-5 melanoma = test system: SK-MEL-5 melanoma
NCI/ADR-RES ovarian = test system: NCI/ADR-RES ovarian
HL-60(TB) leukemia = test system: HL-60(TB) leukemia
U251 CNS = test system: U251 CNS
LOX IMVI melanoma = test system: LOX IMVI melanoma
SNB-19 CNS = test system: SNB-19 CNS
OVCAR-8 ovarian = test system: OVCAR-8 ovarian
ACHN renal = test system: ACHN renal
EKVX NSCLC = test system: EKVX NSCLC
SK-MEL-28 melanoma = test system: SK-MEL-28 melanoma
HS 578T breast = test system: HS 578T breast
OVCAR-4 ovarian = test system: OVCAR-4 ovarian
SF-539 CNS = test system: SF-539 CNS
MDA-MB-435 = test system: MDA-MB-435
RPMI-8226 leukemia = test system: RPMI-8226 leukemia
MCF7 breast = test system: MCF7 breast
HCT-15 colon = test system: HCT-15 colon
MDA-MB-231 breast = test system: MDA-MB-231 breast
DU-145 prostate = test system: DU-145 prostate
K-562 leukemia = test system: K-562 leukemia
HCC-2998 colon = test system: HCC-2998 colon
UACC-62 melanoma = test system: UACC-62 melanoma
PC-3 prostate = test system: PC-3 prostate
UO-31 renal = test system: UO-31 renal
SN12C renal = test system: SN12C renal
RXF 393 renal = test system: RXF 393 renal
NCI-H23 lung = test system: NCI-H23 lung
SNB-75 CNS = test system: SNB-75 CNS

Compound `CC1=C[C@H]2c3c(c(O)c(O)c4oc(-c5ccccc5)cc(=O)c34)[C@H](c3cc(O)c(O)c4oc(-c5ccccc5)cc(=O)c34)[C@H]2C(C)(C)C1` has a GI50 (MDA-MB-468 breast) of 1380 nM and a TGI (MDA-MB-468 breast) of 4760 nM.
Compound `Cc1[nH]c2ccccc2c(=O)c1CC=C(Cl)Cl` has a GI50 (MDA-MB-468 breast) of 18800 nM and a TGI (MDA-MB-468 breast) greater than 100000 nM.
Work on `O=C1Nc2ccc(F)cc2/C1=C/c1ccc[nH]1` yielded a GI50 (MDA-MB-468 breast) of 203 nM and a TGI (MDA-MB-468 breast) of 1500 nM.
For `Brc1ccc(-c2n(Cc3ccc4ccccc4c3)c(-c3ccccc3)c(-c3ccccc3)[n+]2Cc2ccc3ccccc3c2)cc1`, the GI50 (MALME-3M melanoma) was 214 nM, the TGI (MALME-3M melanoma) was 635 nM and the GI50 (A498 renal) was 338 nM. The TGI (A498 renal) was 1310 nM, the GI50 (KM12 colon) was 276 nM and the TGI (KM12 colon) was 1130 nM. For the same compound, the GI50 (IGROV1 ovarian) was 301 nM, the TGI (IGROV1 ovarian) was 1490 nM and the GI50 (TK-10 renal) was 296 nM. The TGI (TK-10 renal) was 1190 nM, the GI50 (OVCAR-3 ovarian) was 253 nM and the TGI (OVCAR-3 ovarian) was 2790 nM. For the same compound, the GI50 (SF-295 CNS) was 220 nM, the TGI (SF-295 CNS) was 682 nM and the GI50 (OVCAR-5 ovarian) was 305 nM. For the same compound, the TGI (OVCAR-5 ovarian) was 1240 nM, the GI50 (CCRF-CEM leukemia) was 342 nM and the TGI (CCRF-CEM leukemia) was 2010 nM. For the same compound, the GI50 (SK-MEL-5 melanoma) was 169 nM, the TGI (SK-MEL-5 melanoma) was 316 nM and the GI50 (NCI/ADR-RES ovarian) was 1440 nM. It also gave a TGI (NCI/ADR-RES ovarian) of 2970 nM, a GI50 (HL-60(TB) leukemia) of 154 nM and a TGI (HL-60(TB) leukemia) of 533 nM. For the same compound, the GI50 (U251 CNS) was 248 nM, the TGI (U251 CNS) was 2600 nM and the GI50 (LOX IMVI melanoma) was 272 nM. It also gave a TGI (LOX IMVI melanoma) of 857 nM, a GI50 (SNB-19 CNS) of 314 nM and a TGI (SNB-19 CNS) of 1250 nM. For the same compound, the GI50 (OVCAR-8 ovarian) was 302 nM, the TGI (OVCAR-8 ovarian) was 1800 nM and the GI50 (ACHN renal) was 363 nM. It also gave a TGI (ACHN renal) of 1240 nM, a GI50 (EKVX NSCLC) of 197 nM and a TGI (EKVX NSCLC) of 1030 nM. For the same compound, the GI50 (SK-MEL-28 melanoma) was 428 nM, the TGI (SK-MEL-28 melanoma) was 1580 nM and the GI50 (HS 578T breast) was 439 nM. It also gave a TGI (HS 578T breast) of 2180 nM, a GI50 (OVCAR-4 ovarian) of 300 nM and a TGI (OVCAR-4 ovarian) of 1400 nM. For the same compound, the GI50 (SF-539 CNS) was 338 nM, the TGI (SF-539 CNS) was 1250 nM and the GI50 (MDA-MB-435) was 295 nM. It also gave a TGI (MDA-MB-435) of 1070 nM, a GI50 (RPMI-8226 leukemia) of 124 nM and a TGI (RPMI-8226 leukemia) of 744 nM. The GI50 (MCF7 breast) was 221 nM, the TGI (MCF7 breast) was 816 nM and the GI50 (HCT-15 colon) was 695 nM. It also gave a TGI (HCT-15 colon) of 2020 nM, a GI50 (MDA-MB-231 breast) of 239 nM and a TGI (MDA-MB-231 breast) of 707 nM. For the same compound, the GI50 (MDA-MB-468 breast) was 68.7 nM, the TGI (MDA-MB-468 breast) was 494 nM and the GI50 (DU-145 prostate) was 381 nM. The TGI (DU-145 prostate) was 1480 nM, the GI50 (K-562 leukemia) was 152 nM and the TGI (K-562 leukemia) was 1460 nM. For the same compound, the GI50 (HCC-2998 colon) was 344 nM, the TGI (HCC-2998 colon) was 1370 nM and the GI50 (UACC-62 melanoma) was 285 nM. For the same compound, the TGI (UACC-62 melanoma) was 1200 nM, the GI50 (PC-3 prostate) was 332 nM and the TGI (PC-3 prostate) was 1500 nM. For the same compound, the GI50 (UO-31 renal) was 1130 nM, the TGI (UO-31 renal) was 2550 nM and the GI50 (SN12C renal) was 256 nM. The TGI (SN12C renal) was 1010 nM, the GI50 (RXF 393 renal) was 212 nM and the TGI (RXF 393 renal) was 798 nM. It also gave a GI50 (NCI-H23 lung) of 244 nM, a TGI (NCI-H23 lung) of 817 nM and a GI50 (SNB-75 CNS) of 189 nM. The TGI (SNB-75 CNS) was 1020 nM.
